Reference: patent US7423159B2, “Agent for preventing or treating neuropathy” (Takeda Pharmaceutical Company Limited, priority 2002, dated 2008)

| Structure (SMILES) | melting point [°C] |
| --- | --- |
| Cc1nc(Cc2ccc(NC(=O)/C=C/c3cnn(C)c3-c3ccc(F)cc3)cc2)no1 [Example 116, (2E)-3-[5-(4-Fluorophenyl)-1-methyl-1H-pyrazol-4-yl]-N-{4-[(5-methyl-1,2,4-oxadiazol-3-yl)methyl]phenyl}acrylamide] | 183 to 184 |
| Cc1nnc(COc2ccc(NC(=O)/C=C/c3cnn(C)c3-c3ccc(F)cc3)cc2)o1 [Example 97, (2E)-3-[5-(4-Fluorophenyl)-1-methyl-1H-pyrazol-4-yl]-N-{4-[(5-methyl-1,3,4-oxadiazol-2-yl)methoxy]phenyl}acrylamide] | 117 to 118 |
| CCc1nc(CCc2ccc(NC(=O)/C=C/c3cnn(C)c3-c3ccc(F)cc3)cc2)cs1 [Example 90, (2E)-N-{4-[2-(2-Ethyl-1,3-thiazol-4-yl)ethyl]phenyl}-3-[5-(4-fluorophenyl)-1-methyl-1H-pyrazol-4-yl]acrylamide] | 190 to 191 |
| CSCc1ccc(NC(=O)/C=C/c2cnn(C)c2-c2ccc(SC)cc2)cc1 [Example 207, (2E)-3-{1-methyl-5-[4-(methylthio)phenyl]-1H-pyrazol-4-yl}-N-{4-[(methylthio)methyl]phenyl}acrylamide] | 145 to 146 |
| Cn1ncc(/C=C/C(=O)Nc2cccc(CO)c2)c1-c1ccc(F)cc1 [Example 169, (2E)-3-[5-(4-Fluorophenyl)-1-methyl-1H-pyrazol-4-yl]-N-[3-(hydroxymethyl)phenyl)acrylamide] | 130 to 132 |
| Cn1ncc(/C=C/C(=O)Nc2ccc3[nH]c(=O)oc3c2)c1-c1ccc(F)cc1 [Example 106, (2E)-3-[5-(4-Fluorophenyl)-1-methyl-1H-pyrazol-4-yl]-N-(2-oxo-2,3-dihydro-1,3-benzoxazol-6-yl)acrylamide] | > 300 |
| COP(=O)(Cc1ccc(NC(=O)/C=C/c2cncn2-c2ccc(F)cc2)cc1)OC | 108 to 109 |
| Cn1ncc(/C=C/C(=O)Nc2ccc(CNC(=O)OC(C)(C)C)cc2)c1-c1ccc(F)cc1 [Example 170, tert-Butyl 4-({(2E)-3-[5-(4-fluorophenyl)-1-methyl-1H-pyrazol-4-yl]prop-2-enoyl]amino)benzylcarbamate] | 222 to 223 |
| Cc1nc(Cc2ccc(NC(=O)/C=C/c3cnn(C)c3-c3ccc(F)cc3)cc2)sc1C [Example 123, (2E)-N-{4-[(4,5-Dimethyl-1,3-thiazol-2-yl)methyl]phenyl}-3-{5-(4-fluorophenyl)-1-methyl-1H-pyrazol-4-yl}acrylamide] | 210 to 211 |
| COP(=O)(Cc1ccc(NC(=O)CCc2cnn(C)c2-c2ccc(F)cc2)cc1)OC | 142 to 143 |
| COP(=O)(Cc1ccc(NC(=O)/C=C/c2cnn(C)c2-c2ccc(C(F)(F)F)cc2)cc1)OC | 212 to 213 |
| COP(=O)(Cc1ccc(NC(=O)/C=C/c2cnn(C)c2-c2cccc(Cl)c2)cc1)OC | 248 to 249 |
| CCc1nnc(Cc2ccc(NC(=O)/C=C/c3cnn(C)c3-c3ccc(F)cc3)cc2)o1 [Example 134, (2E)-N-{4-[(5-ethyl-1,3,4-oxadiazol-2-yl)methyl]phenyl}-3-[5-(4-fluorophenyl)-1-methyl-1H-pyrazol-4-yl]acrylamide] | 164 to 165 |
| Cn1ncc(/C=C/C(=O)Nc2ccc3c(c2)oc(=O)n3C)c1-c1ccc(F)cc1 [Example 122, (2E)-3-[5-(4-Fluorophenyl)-1-methyl-1H-pyrazol-4-yl]-N-(3-methyl-2-oxo-2,3-dihydro-1,3-benzoxazol-6-yl)acrylamide] | 265 to 266 |

Now from value to compound:

| melting point [°C] | Structure (SMILES) |
| --- | --- |
| 203 to 205 | COC(=O)c1ncnn1Cc1ccc(NC(=O)/C=C/c2cnn(C)c2-c2ccc(F)cc2)cc1 [Example 164, Methyl 1-[4-({(2E)-3-[5-(4-fluorophenyl)-1-methyl-1H-pyrazol-4-yl]prop-2-enoyl}amino)benzyl]-1H-1,2,4-triazole-5-carboxylate] |
| 207 to 208 | CCOP(=O)(Cc1ccc(NC(=O)/C=C/c2cnn(Cc3ccccc3)c2-c2ccc(F)cc2)cc1)OCC |
| 260 to 261 | Cc1cncn1Cc1ccc(NC(=O)/C=C/c2cnn(C)c2-c2ccc(F)cc2)cc1 [Example 201, (2E)-3-[5-(4-Fluorophenyl)-1-methyl-1H-pyrazol-4-yl]-N-{4-[(5-methyl-1H-imidazol-1-yl)methyl]phenyl}acrylamide] |
| 271 to 272 | CC(C)c1nccn1Cc1ccc(NC(=O)/C=C/c2cnn(C)c2-c2ccc(F)cc2)cc1 [Example 162, (2E)-3-[5-(4-Fluorophenyl)-1-methyl-1H-pyrazol-4-yl]-N-{4-[(2-isopropyl-1H-imidazol-1-yl)methyl]phenyl}acrylamide] |
| 178 to 179 | CCc1nc(Cc2ccc(NC(=O)/C=C/c3cnn(C)c3-c3ccc(F)cc3)cc2)cs1 [Example 99, (2E)-N-{4-[(2-Ethyl-1,3-thiazol-4-yl)methyl]phenyl}-3-[5-(4-fluorophenyl)-1-methyl-1H-pyrazol-4-yl]acrylamide] |
| 195 to 196 | CCOP(=O)(Cc1ccc(NC(=O)/C=C/c2cnn(C)c2-c2ccco2)cc1)OCC |
| 211 to 214 | CCOP(=O)(Cc1ccc(NC(=O)/C=C/c2cnn(C)c2-c2cccnc2)cc1)OCC |
| 200 to 201 | CCc1csc(CCc2ccc(NC(=O)/C=C/c3cnn(C)c3-c3ccc(F)cc3)cc2)n1 [Example 113, (2E)-N-{4-[2-(4-Ethyl-1,3-thiazol-2-yl)ethyl]phenyl}-3-[5-(4-fluorophenyl)-1-methyl-1H-pyrazol-4-yl]acrylamide] |
| 157 to 158 | CCSCc1ccc(NC(=O)/C=C/c2cnn(C)c2-c2ccc(F)cc2)cc1 [Example 210, (2E)-N-{4-[(Ethylthio)methyl]phenyl}-3-[5-(4-fluorophenyl)-1-methyl-1H-pyrazol-4-yl]acrylamide] |
| 195 to 197 | CCOC(=O)CCC(=O)NCc1ccc(NC(=O)/C=C/c2cnn(C)c2-c2ccc(F)cc2)cc1 [Example 188, Ethyl 4-{[4-({(2E)-3-[5-(4-fluorophenyl)-1-methyl-1H-pyrazol-4-yl]prop-2-enoyl}amino)benzyl]amino}-4-oxobutanoate] |
| 177 to 178 | CCOC(=O)Cc1ccc(NC(=O)/C=C/c2cnn(C)c2-c2ccc(F)cc2)cc1 [Example 109, ethyl [4-({(2E)-3-[5-(4-fluorophenyl)-1-methyl-1H-pyrazol-4-yl]prop-2-enoyl}amino)phenyl]acetate] |
| 220 to 221 | COP(=O)(Cc1ccc(NC(=O)/C=C/c2cnn(C)c2-c2ccccc2F)cc1)OC |
| 209 to 210 | COP(=O)(Cc1ccc(NC(=O)/C=C/c2cnn(C)c2-c2ccc(Cl)cc2)cc1)OC |
| 240 to 241 | Cn1ncc(/C=C/C(=O)Nc2ccc(C[S+](C)[O-])cc2)c1-c1ccc(F)cc1 (centres unmarked) [Example 215, (2E)-3-(5-(4-fluorophenyl)-1-methyl-1H-pyrazol-4-yl)-N-(4-((methylsulfinyl)methyl)phenyl)acrylamide] |
| 150 to 151 | CCC(O)(CC)Cc1ccc(NC(=O)/C=C/c2cnn(C)c2-c2ccc(F)cc2)cc1 [Example 115, (2E)-N-[4-(2-Ethyl-2-hydroxybutyl)phenyl]-3-[5-(4-fluorophenyl)-1-methyl-1H-pyrazol-4-yl]acrylamide] |
